Measured values: ChEMBL document CHEMBL4673200, “Hydride-induced Meisenheimer complex formation reflects activity of nitro aromatic anti-tuberculosis compounds” (RSC Med Chem, 2021)
Active and inactive are the calls of the source. The rule behind the calls is not given here.

Assays:
[1] = tested on: Mycobacterium tuberculosis variant bovis BCG; test: Inhibition of Mycobacterium bovis BCG QcrB assessed as decrease in ATP level at 0.01 to 10 uM incubated for 20 hrs by Bactiter-Glo microbial cell viability assay; details: dose 0.01-10 µM
[2] = tested on: Mycobacterium tuberculosis variant bovis BCG; test: Inhibition of Mycobacterium bovis BCG QcrB harboring CydAB deletion mutant assessed as decrease in ATP level at 0.01 to 10 uM incubated for 20 hrs by Bactiter-Glo microbial cell viability assay; details: dose 0.01-10 µM
[3] = tested on: Mycobacterium tuberculosis variant bovis BCG; test: Inhibition of Mycobacterium bovis BCG QcrB assessed as decrease in ATP level at 10 uM incubated for 20 hrs by Bactiter-Glo microbial cell viability assay
[4] = tested on: Mycobacterium tuberculosis variant bovis BCG; test: Inhibition of Mycobacterium bovis BCG QcrB harboring CydAB deletion mutant assessed as decrease in ATP level at 10 uM incubated for 20 hrs by Bactiter-Glo microbial cell viability assay

Compound | inhibition [1] | inhibition [2] | inhibition [3] | inhibition [4]
COc1nc2ccc(Br)cc2cc1[C@@H](c1ccccc1)[C@@](O)(CCN(C)C)c1cccc2ccccc12 | Active | Active | – | –
O=C(NCc1ccc(N2CCC(c3ccc(OC(F)(F)F)cc3)CC2)cc1)c1nc2cc(C(F)(F)F)cc([N+](=O)[O-])c2s1 | – | – | Active | Active
O=C(NCc1ccc(N2CCC(c3ccc(OC(F)(F)F)cc3)CC2)cc1)c1sc2c([N+](=O)[O-])cc(C(F)(F)F)cc2[n+]1[O-] | – | – | Active | Active
CCc1nc2ccc(Cl)cn2c1C(=O)NCc1ccc(N2CCC(c3ccc(OC(F)(F)F)cc3)CC2)cc1 [TELACEBEC] | Active | Active | – | –
